According to patent US20250382305A1 (PTC THERAPEUTICS, INC., priority 2022, published 2025):

Assays:
ATXN3 pre-mRNA = assay: RT-qPCR Assay to Quantify Exon 4 Skipping in ATXN3 pre-mRNA in Cells; format: cell-based; conditions: percent exon 4 skipping in ATXN3 pre-mRNA, RT-qPCR of cell lysates; average IC50
Protocol: RT-qPCR Assay to Quantify Exon 4 Skipping in ATXN3 pre-mRNA in Cells
(§1) Test compounds were serially diluted 3.16-fold in 100% DMSO to generate a 7-point concentration curve. Aliquots of 0.5 μL of diluted compounds were transferred to a 96-well flat bottom plate by a liquid handler. An aliquot of 0.5 μL DMSO was also transferred to separate wells and used as controls. Duplicate samples were set up for each compound concentration and for the DMSO control.
Cells were thawed and incubated in cell culture media (DMEM, 10% FBS, and 1% antibiotic cocktail) for 72 h. Cells were trypsinized, counted, and re-suspended to a concentration of 100,000 cells/mL in cell culture media. A 100 μL aliquot of the cell suspensions were plated at 10,000 cells per well in the compound containing 96 well microtiter plate and incubated for in a cell culture incubator (37° C., 5% CO2, 100% relative humidity).
After 24 h, media was aspirated from the cells and 50 μL of the RCL2 lysis buffer (10 mM Tris-HCL pH 7.4, 150 mM NaCl, 0.33% IGEPAL® CA-630) was added to each well and incubated at RT for 1 min. Chilled nuclease free water (50 μL per well) was added and the plates were immediately transferred on ice. After 1 min on ice, plates were frozen at −80° C. overnight.
Preparation of RT-qPCR Reaction Mixture:
An aliquot of 2 μL/well of the cell lysates was transferred using the liquid handler to the Armadillo 384-Well PCR plate containing 8 μL/well of the RT-qPCR reaction mixture that was prepared as detailed above. The plates were then sealed with MicroAmp™ Optical Adhesive Film followed by spinning down for 1 min and placed in the CFX384 thermocycler (BioRad).
The RT-qPCR was carried out at the following temperatures for the indicated time: • Step 1: 48° C. (30 min) • Step 2: 95° C. (10 min) • Step 3: 95° C. (15 sec) • Step 4: 60° C. (1 min); then, repeated Steps 3 and 4 for a total of 40 cycles.
The percent exon 4 skipping was calculated for each dose of compound treatment using Equations 1 and 2.
Data were fit to a dose response curve and the IC50 was interpolated using XLfit® statistical and curve fitting package.
(§2) An average IC50>1 μM is indicated by one star (*), between >0.3 μM and ≤1 μM is indicated by two stars (**), between >0.03 μM and ≤0.3 μM is indicated by three stars (***), and ≤0.03 μM is indicated by four stars (****).

[1] = system: Total ATXN3 (tATXN3) protein; assay: Endogenous Total ATXN3 (tATXN3) Protein Assay (MSD immunoassay of cell lysates); format: cell-based; conditions: average IC50, total ATXN3 protein in cell lysate after 48 h with compound (Table 1)
Protocol: Endogenous Total ATXN3 (tATXN3) Protein Assay
Meso Scale Discovery (MSD) 96-well or 384-well plates were coated overnight at 4° C. with Ataxin 3 mouse monoclonal antibody (Invitrogen, MA3-082) at a concentration of 0.5 μg/mL in PBS (30 μL per well). Plates were then washed three times with 300 μL wash buffer (0.05% TWEEN®-20, polyethylene glycol sorbitan monolaurate, in PBS) and blocked (Meso Scale Diagnostics, R93BA-1; 5% BSA in PBS) for 2 h at RT with rotational shaking and then washed three times with wash buffer.
as §1
Cells were thawed and incubated in cell culture media (DMEM, 10% FBS, and 1% antibiotic cocktail) for 72 h. Cells were trypsinized, counted, and re-suspended to a concentration of 100,000 cells/mL in cell culture media. A 100 μL aliquot of the cell suspensions were plated at 10,000 cells per well in the compound containing 96 well microtiter plate and incubated for in a cell culture incubator (37° C., 5% CO2, 100% relative humidity). After 48 h, the medium was removed and 50-100 μL of lysis buffer (Meso Scale Diagnostics, R60TX-2) containing 1× halt protease inhibitor cocktail of (Thermo Scientific, Halt™ Protease Inhibitor Cocktail, 78430) per well was added to cells to provide a “cell lysate”. The plate was placed on a shaker at 4° C. for 30 minutes, then stored at −80° C.
Cell lysate samples (25 μL) were transferred to the antibody-coated MSD plate and incubated overnight at 4° C. After removal of the lysates, the plate was washed three times with wash buffer, and 25 μL of Ataxin 3 recombinant rabbit monoclonal antibody (Invitrogen, #702788) secondary antibody (diluted to 0.25 μg/mL in 0.05% TWEEN®-20 in blocking buffer) was added to each well and incubated with shaking for 1-2 h at room temperature. Following incubation with the secondary antibody, the wells were rinsed with wash buffer and then 25 μL of Anti Rabbit Antibody Goat SULFO-TAG Labeled (Meso Scale Diagnostics, R32AB-1) detecting antibody (diluted to […] in 0.05% TWEEN®-20 in blocking buffer) was added to each well and incubated with shaking for 1 h at room temperature. After rinsing three times with wash buffer, 150 μL of Read Buffer T with surfactant (tris-based buffer containing tripropylamine, Meso Scale Diagnostics, R92TC-1) were added to each empty well, and the plate was imaged on a SI 6000 imager (MSD) according to manufacturers' instructions provided for 96- or 384-well plates.
as §2

Molecule	IC50 (ATXN3 pre-mRNA)	IC50 [1]
CC#CCNc1cc(Cl)nc2c(Br)c([C@H]3CC(C)=C(C)C[C@@H]3N)sc12 [Compound 249, 2-((1S,6S)-6-amino-3,4-dimethylcyclohex-3-en-1-yl)-3-bromo-N-(but-2-yn-1-yl)-5-chlorothieno[3,2-b]pyridin-7-amine]	≤ 30 nM	30 to 300 nM
N[C@H]1CCOC[C@@H]1c1sc2c(NCc3ccccc3)cc(Cl)nc2c1Cl [Compound 218, 2-((3R,4S)-4-aminotetrahydro-2H-pyran-3-yl)-N-benzyl-3,5-dichlorothieno[3,2-b]pyridin-7-amine]	≤ 30 nM	≤ 30 nM
N[C@H]1CCCC(F)(F)[C@@H]1c1sc2c(NCc3ccco3)nc(Cl)nc2c1Br [Compound 201, 6-((1R,6S)-6-amino-2,2-difluorocyclohexyl)-7-bromo-2-chloro-N-(furan-2-ylmethyl)thieno[3,2-d]pyrimidin-4-amine]	≤ 30 nM	≤ 30 nM
N[C@@H]1CC=CC[C@H]1c1sc2c(NCc3ccsc3)cc(Cl)nc2c1Br [Compound 415, 2-((1R,6R)-6-aminocyclohex-3-en-1-yl)-3-bromo-5-chloro-N-(thiophen-3-ylmethyl)thieno[3,2-b]pyridin-7-amine]	300 to 1000 nM	300 to 1000 nM
N[C@H]1CC=CC[C@@H]1c1sc2c(NCc3ccncc3)cc(Cl)nc2c1Cl [Compound 203, 2-((1S,6S)-6-aminocyclohex-3-en-1-yl)-3,5-dichloro-N-(pyridin-4-ylmethyl)thieno[3,2-b]pyridin-7-amine]	≤ 30 nM	≤ 30 nM
Cc1c([C@H]2CCCC[C@@H]2N)sc2c(NCc3cccs3)cc(Cl)nc12 [Compound 71, 2-((1S,2S)-2-aminocyclohexyl)-5-chloro-3-methyl-N-(thiophen-2-ylmethyl)thieno[3,2-b]pyridin-7-amine]	≤ 30 nM	≤ 30 nM
N[C@@H]1CCCCC[C@@H]1c1sc2c(NCc3cccs3)cc(Cl)nc2c1Br [Compound 72, 2-((1S,2R)-2-aminocycloheptyl)-3-bromo-5-chloro-N-(thiophen-2-ylmethyl)thieno[3,2-b]pyridin-7-amine]	> 1000 nM	> 1000 nM
Cc1c([C@H]2CC=CC[C@@H]2N)sc2c(NCc3ccccc3)nc(Cl)nc12 [Compound 326, 6-((1S,6S)-6-aminocyclohex-3-en-1-yl)-N-benzyl-2-chloro-7-methylthieno[3,2-d]pyrimidin-4-amine]	30 to 300 nM	30 to 300 nM
N[C@H]1CCCC[C@@H]1c1sc2c(NCc3ccco3)nc(Cl)nc2c1Br [Compound 68, 6-((1S,2S)-2-aminocyclohexyl)-7-bromo-2-chloro-N-(furan-2-ylmethyl)thieno[3,2-d]pyrimidin-4-amine]	≤ 30 nM	≤ 30 nM
N[C@@H]1CCCC[C@H]1c1sc2c(NCc3cccs3)cc(Cl)nc2c1Cl (single isomer, unassigned) [Compound 36, 2-((1R,2R)-2-aminocyclohexyl)-3,5-dichloro-N-(thiophen-2-ylmethyl)thieno[3,2-b]pyridin-7-amine or 2-((1S,2S)-2-aminocyclohexyl)-3,5-dichloro-N-(thiophen-2-ylmethyl)thieno[3,2-b]pyridine-7-amine]	> 1000 nM	> 1000 nM
N[C@@H]1CCCO[C@H]1c1sc2c(NCc3ccccc3)nc(Cl)nc2c1Br [Compound 70, 6-((2R,3R)-3-aminotetrahydro-2H-pyran-2-yl)-N-benzyl-7-bromo-2-chlorothieno[3,2-d]pyrimidin-4-amine]	> 1000 nM	> 1000 nM
N[C@H]1CCC[C@@H]1c1sc2c(NCc3ccccc3)cc(Cl)nc2c1Cl [Compound 159, 2-((1S,2S)-2-aminocyclopentyl)-N-benzyl-3,5-dichlorothieno[3,2-b]pyridin-7-amine]	> 1000 nM	> 1000 nM
N[C@H]1CCCCCC[C@@H]1c1cc2nc(Cl)cc(NCc3cccs3)c2s1 [Compound 103, 2-((1S,2S)-2-aminocyclooctyl)-5-chloro-N-(thiophen-2-ylmethyl)thieno[3,2-b]pyridin-7-amine]	> 1000 nM	> 1000 nM
Cc1c([C@@H]2CC=CC[C@H]2N)sc2c(NCc3cccs3)cc(Cl)nc12 [Compound 220, 2-((1R,6R)-6-aminocyclohex-3-en-1-yl)-5-chloro-3-methyl-N-(thiophen-2-ylmethyl)thieno[3,2-b]pyridin-7-amine]	≤ 30 nM	≤ 30 nM
N[C@@H]1CCCC[C@H]1c1c(I)c2nc(Cl)nc(NCc3ccco3)c2n1C(F)F [Compound 391, 6-((1R,2R)-2-aminocyclohexyl)-2-chloro-5-(difluoromethyl)-N-(furan-2-ylmethyl)-7-iodo-5H-pyrrolo[3,2-d]pyrimidin-4-amine]	300 to 1000 nM	300 to 1000 nM
N[C@@H]1COCC[C@H]1c1sc2c(NCc3cccs3)cc(Cl)nc2c1Cl.N[C@H]1COCC[C@@H]1c1sc2c(NCc3cccs3)cc(Cl)nc2c1Cl (mixture of isomers) [Compound 272, 2-((3R,4S)-3-aminotetrahydro-2H-pyran-4-yl)-3,5-dichloro-N-(thiophen-2-ylmethyl)thieno[3,2-b]pyridin-7-amine and 2-((3S,4R)-3-aminotetrahydro-2H-pyran-4-yl)-3,5-dichloro-N-(thiophen-2-ylmethyl)thieno[3,2-b]pyridin-7-amine]	30 to 300 nM	30 to 300 nM
2-((1S,6S)-6-aminocyclohex-3-en-1-yl)-3-bromo-5-chloro-N-(thiophen-2-ylmethyl)thieno[3,2-b]pyridin-7-amine and 2-((1R,6R)-6-aminocyclohex-3-en-1-yl)-3-bromo-5-chloro-N-(thiophen-2-ylmethyl)thieno[3,2-b]pyridin-7-amine [Compound 256]	≤ 30 nM	30 to 300 nM
N[C@@H]1CC=CC[C@H]1c1sc2c(NCc3ccccc3)cc(Cl)nc2c1Cl [Compound 404, 2-((1R,6R)-6-aminocyclohex-3-en-1-yl)-N-benzyl-3,5-dichlorothieno[3,2-b]pyridin-7-amine]	30 to 300 nM	30 to 300 nM
N[C@@H]1CCOC[C@H]1c1sc2c(NCc3ccco3)cc(Cl)nc2c1Cl [Compound 389, 2-((3S,4R)-4-aminotetrahydro-2H-pyran-3-yl)-3,5-dichloro-N-(furan-2-ylmethyl)thieno[3,2-b]pyridin-7-amine]	300 to 1000 nM	300 to 1000 nM
Cc1c([C@H]2CC=C(C(=O)O)C[C@@H]2N)sc2c(NCc3cccs3)cc(Cl)nc12 [Compound 446, (4S,5S)-5-amino-4-(5-chloro-3-methyl-7-((thiophen-2-ylmethyl)amino)thieno[3,2-b]pyridin-2-yl)cyclohex-1-ene-1-carboxylic acid]	≤ 30 nM	≤ 30 nM
